Results on two compounds are retold here after patent publication US12655169B2, “Arabinose and preparation and use thereof” (THOMSON BIOTECH (XIAMEN) PTE. LTD., priority 2022, dated 2026).

In data set [1] the test system is SPF mice. Nature of the data set: Bowel preparation in mice. In kind it is in vivo. The method, then: 5.1 Experimental animals and feeding thereof: SPF (Specific pathogen free) mice, 6 weeks old; normal feed was D12450-B feed: 67.35 wt % carbohydrates, 19.2 wt % crude protein, 4.3 wt % fat. The temperature of the room was kept at 24-26° C. with humidity at 40-60%.
5.2 Experimental method and procedure:
The SPF mice were randomly divided into a blank control group, a positive control group and a treatment group, 20 mice per group, half being male and half female. Administration method: Animals in each group were fasted (water was accessible) from last 22:00 before the day of experiment, were each given ⅓ the calculated amount of drug by intragastrical administration at 7:00, 9:00 and 11:00 on the day of experiment, were each given 0.1 mL of purified water at 12:00, 13:00 and 14:00, and were dissected 3.5 h after the last administration.

Data set [2] concerns Humans. Nature of the data set: Bowel preparation in humans. In kind it is in vivo. The method, then: Administration Sample: L-Arabinose Prepared in Example 1 Subject: weighing 73 kg Administration Regimen: The subject drank water normally on an empty stomach after getting up in the morning. At 10:06, the subject dissolved 30 g of L-arabinose in about 100-150 mL of mineral water and consumed the solution in about 5 min.

The nature of data set [3]: Flowability test (particle and powder characteristic analyzer, FT-102D). The format is physicochemical. The source says: (§1) Example 4. Particle Size Parameters and Powder Characteristics (Quantity Distribution) of L-Arabinose
Example 13. Performance Test Results for the Granules of the Present Disclosure

Data set [4] is described as follows: Granularity distribution of sample (standard sieve). The format is physicochemical. As to conditions: Example 8 samples, seed crystal specification and fed-batch time varied. As to the method:
1 kg of L-arabinose starting material was dissolved in 1.2 kg of purified water at 60° C. After the solution was completely clear, 1 g of activated carbon ([…] of the L-arabinose) was added. The mixture was incubated at 60° C. for 30 min and then subjected to suction filtration under vacuum successively through 25 μm and 0.45 μm filter membranes to remove the activated carbon, and a clear filtered sugar liquid (about 1800 mL in volume) was obtained. About 800 mL of the clear filtered sugar liquid was added to a three-necked flask, and stirred and evaporated under reduced pressure in a water bath set at a temperature of 62° C. until the sugar degree reached 58-60% Brix. A proper amount of L-arabinose was added as seed crystals (as shown in Table 8-1 below, seed crystal with different specifications was selected: 40-60 mesh, 16.5 g; 60-80 mesh, 6 g; 80-100 mesh, 1.5 g). The mixture was stirred (double-layered type of stirring, with two-half-crescent type for the lower layer and three-bladed propeller type for the upper layer) at a rate of 90-110 rpm until the seed crystal was completely dispersed. Then the sugar liquid was added at a rate of 50-100 mL/h in a fed-batch manner for a time period of 12/18 h. After the fed-batch addition was completed, the concentrating was continued for 1-2 h. It was about 14 h from the time the seed crystal was added to the time of discharging.
According to the results shown in Table 8-1, the specific surface area of the seed crystal of 80-100 mesh is relatively […] compared with that of the seed crystal of other specifications (as shown in Table 8-2), but the particle size distribution of the sample obtained by experiment is relatively uniform: the proportion of 20-80 mesh is more than 89.7%, and the maximum proportion is more than 90%, which fully complies with the requirements of the existing pharmacopoeia (Chinese pharmacopoeia (2020)) for granules: granules cannot pass through a No. 1 sieve (10 mesh, 2000 μm) and the total quantity of granules which can pass through a No. 5 sieve (80 mesh, pore size of […]) should not exceed 15%.

Data set [5] is described as follows: Particle size parameter test (BT-2900 image particle size analysis system). In kind it is physicochemical.
From the text: as §1

Data set [6] in a line: Saturation curve and crystallization curve of L-arabinose. As to conditions: for Crystallization mass concentration: cooling 1 °C/h, stirring 100 rpm; for Saturation mass concentration: water. The format is physicochemical. The method, then:
A round-bottom flask was plated in a constant-temperature box with temperature control. To a three-necked round-bottom flask (one flask mouth was plugged with a plastic stopper as a sampling mouth, one flask mouth was used for placing a stirrer, and one flask mouth was used for temperature sensing) were added a certain amount of ionized water and excessive L-arabinose crystal (prepared according to the method of Example 10). The mixture was stirred at 40° C., 49° C., 53° C., 58° C. and 65° C. for 3 h per temperature point, and then let stand for 4 h to allow the undissolved L-arabinose crystal to completely settle. Then the supernatant was collected and filtered through a microporous filter membrane (for filtration using a small injection needle in the constant-temperature box to eliminate the effect of temperature change). The resulting clear liquid was used for concentration determination. A saturation curve was plotted for arabinose: y=0.5927x+23.089 (correlation coefficient R 2=0.99) (see FIG. 4). Clear sugar liquids in which corresponding mass concentrations of L-arabinose were dissolved was prepared, then slowly cooled (1° C./h), and cooled at a constant rate (with stirring at 100 rpm). The crystallization temperature of the sugar liquids with different mass concentrations was observed and recorded. A crystallization curve was plotted for arabinose: y=0.4163x+40.413 (correlation coefficient R 2=1) (see FIG. 4 and Table 15-1).

The nature of data set [7]: In vitro osmotic pressure test (Vapro Pressure Osmometer). Conditions: versus sorbitol solution at the same mass concentration 30%. The format is physicochemical. The source says: Instrument: Vapro Pressure Osmometer
Materials: L-Arabinose (Prepared According to the Method of Example 1); Sorbitol (Commercially Available Chinese Medicinal Agent)
Procedure: The 4 numbered solutions were each prepared according to the material proportions shown in Table 2 and stirred until they were all clear and transparent.

The mark [8] stands for this setting: quantity distribution, image particle size analysis.

Turning to `O[C@@H]1[C@@H](O)[C@@H](O)OC[C@@H]1O` [Example 1, β-L-(+)-arabinose], the “Dosage relative to the positive control group to achieve the same effect” value in data set [1] (12 g/kg vs PEG 31.5 g/kg) is listed as 38%. For the same compound, the “Residue in the rectum and colon after the dissection” value in data set [1] (dissected 3.5 h after the last administration, L-arabinose 12 g/kg, PEG 31.5 g/kg) was “no residue was left in the rectum and colon”. In addition, the “Stools observed before the dissection” value in data set [1] (intragastrical, three doses, L-arabinose 12 g/kg, PEG 31.5 g/kg) is “Watery and loose stools”. In data set [2] (30 g oral, at 10:42 (dose at 10:06)), the “Stool passed, first bathroom visit” value is given as “loose stool”. Further, in data set [2] (30 g oral, at 11:11), the “Stool passed, second bathroom visit” value is given as “watery stool”. Besides, in data set [2] (30 g oral, at 11:55), the “Stool passed, third bathroom visit” value is “watery stool with little residue”. The “Stool passed, fourth bathroom visit” value in data set [2] (30 g oral, at 13:27) was “light yellow watery stool without residue”. Besides, the “Time from administration to first stool” value in data set [2] (one subject, 30 g oral in 100-150 mL water) was “About 40 min”. Moreover, in data set [3], the Bulk density came out at 0.7 g/mL, the Compressibility was determined as 17.1%, the Floodability index amounted to 75.0 and the “Flowability (Hausner ratio)” value is reported as “Good”. Moreover, in data set [3], the Hausner ratio came to 1.2 and the Tap density amounted to 0.85 g/mL. In addition, in data set [3] (in ° (unit assumed)), the Angle of repose turned out to be 40.01. Also, in data set [4], the Granularity distribution of sample (standard sieve) 20-80 mesh turned out to be 71.2%, the Granularity distribution of sample (standard sieve) <80 mesh came out at 5.4% and the Granularity distribution of sample (standard sieve) >20 mesh is 23.4%. In addition, the span in data set [5] (particle size analysis) is reported as 0.985. In data set [5] (setting [8]), this compound displayed an Average particle size of 149 μm, a D10 of 49 μm, a D50 of 138 μm and a D90 of 261 μm.
Turning to `O[C@@H]1[C@@H](O)[C@@H](O)OC[C@@H]1O` [L-arabinose, β-L-(+)-arabinose], the Supersaturation coefficient in data set [6] (40 °C) stood at 1.233; in data set [6] (49 °C), 1.154; in data set [6] (53 °C), 1.134; in data set [6] (58 °C), 1.135; in data set [6] (65 °C) it was 1.097. The Crystallization mass concentration in data set [6] (40 °C) amounted to 57.07%; in data set [6] (49 °C) it was 60.81%; in data set [6] (53 °C), 62.48%; in data set [6] (58 °C), 64.56%; in data set [6] (65 °C), 67.47%. For the same compound, the Saturation mass concentration in data set [6] (40 °C) was 46.3%; in data set [6] (49 °C) it was 52.7%; in data set [6] (53 °C) it was 55.1%; in data set [6] (58 °C), 56.9%; in data set [6] (65 °C), 61.5%. In addition, the “Percent increase in osmotic pressure” value in data set [7] was 22.8%.
